Experimental data from ChEMBL document CHEMBL2069250, “Indole-2-carboxamides as allosteric modulators of the cannabinoid CB₁ receptor” (J Med Chem, 2012).

How the values were obtained:
Format in all cases: cell-based
Cannabinoid receptor 1 [1] = biological target: T1, Cannabinoid receptor 1 (Homo sapiens, UniProt P21554); assay: Allosteric modulation of human recombinant CB1 receptor expressed in HEK293 cells assessed as stimulation of [3H]CP55940 binding
Cannabinoid receptor 2 [2] = biological target: T2, Cannabinoid receptor 2 (Homo sapiens, UniProt P34972); assay: Allosteric modulation of human recombinant CB2 receptor expressed in HEK293 cells assessed as inhibition of [3H]CP55940 binding at 10 uM
Cannabinoid receptor 1 [3] = biological target: T1, Cannabinoid receptor 1; assay: Allosteric modulation of human recombinant CB1 receptor expressed in HEK293 cells assessed as stimulation of [3H]CP55940 binding at 10 uM
Cannabinoid receptor 2 [4] = biological target: T2, Cannabinoid receptor 2; assay: Allosteric modulation of human recombinant CB2 receptor expressed in HEK293 cells assessed as inhibition of [3H]CP55940 binding
Cannabinoid receptor 2 [5] = biological target: T2, Cannabinoid receptor 2; assay: Allosteric modulation of human recombinant CB2 receptor expressed in HEK293 cells assessed as stimulation of [3H]CP55940 binding
Cannabinoid receptor 2 [6] = biological target: T2, Cannabinoid receptor 2; assay: Allosteric modulation of human recombinant CB2 receptor expressed in HEK293 cells assessed as stimulation of [3H]CP55940 binding at 10 uM
Cannabinoid receptor 1 [7] = biological target: T1, Cannabinoid receptor 1; assay: Allosteric modulation of human recombinant CB1 receptor expressed in HEK293 cells assessed as inhibition of [3H]CP55940 binding
Cannabinoid receptor 1 [8] = biological target: T1, Cannabinoid receptor 1; assay: Allosteric modulation of human recombinant CB1 receptor expressed in HEK293 cells assessed as inhibitor of [3H]CP55940 binding at 10 uM
Cannabinoid receptor 1 [9] = biological target: T1, Cannabinoid receptor 1; assay: Allosteric modulation of human recombinant CB1 receptor expressed in HEK293 cells assessed as inhibition of [3H]CP55940 binding at 25 uM

T2 sequence (P34972 whole entry): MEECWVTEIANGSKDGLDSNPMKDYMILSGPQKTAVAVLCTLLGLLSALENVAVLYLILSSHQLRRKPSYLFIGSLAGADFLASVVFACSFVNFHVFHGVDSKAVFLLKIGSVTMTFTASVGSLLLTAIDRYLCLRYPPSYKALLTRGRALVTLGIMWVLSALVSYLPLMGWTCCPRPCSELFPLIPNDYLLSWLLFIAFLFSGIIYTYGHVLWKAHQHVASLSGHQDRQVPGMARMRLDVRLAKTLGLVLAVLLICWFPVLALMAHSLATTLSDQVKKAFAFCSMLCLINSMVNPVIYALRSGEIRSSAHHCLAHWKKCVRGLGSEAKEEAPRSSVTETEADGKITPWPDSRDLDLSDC
T1 sequence (P21554 whole entry): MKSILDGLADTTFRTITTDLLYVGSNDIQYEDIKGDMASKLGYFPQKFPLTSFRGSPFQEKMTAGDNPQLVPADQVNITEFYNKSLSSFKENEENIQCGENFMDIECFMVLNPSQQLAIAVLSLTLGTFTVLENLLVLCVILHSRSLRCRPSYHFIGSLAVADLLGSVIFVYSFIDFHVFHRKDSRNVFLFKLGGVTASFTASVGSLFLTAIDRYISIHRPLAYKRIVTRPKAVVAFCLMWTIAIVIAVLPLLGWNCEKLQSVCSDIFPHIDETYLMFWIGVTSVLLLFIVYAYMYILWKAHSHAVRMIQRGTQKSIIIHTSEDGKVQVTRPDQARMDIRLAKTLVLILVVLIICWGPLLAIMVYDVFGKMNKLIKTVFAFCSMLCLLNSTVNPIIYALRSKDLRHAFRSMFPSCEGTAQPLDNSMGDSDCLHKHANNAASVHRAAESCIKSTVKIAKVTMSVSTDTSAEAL

EC50 (Cannabinoid receptor 1 [1])	inhibition (Cannabinoid receptor 2 [2])	Activity (Cannabinoid receptor 1 [3])	IC50 (Cannabinoid receptor 2 [4])	SMILES	EC50 (Cannabinoid receptor 2 [5])	Activity (Cannabinoid receptor 2 [6])	IC50 (Cannabinoid receptor 1 [7])	inhibition (Cannabinoid receptor 1 [8])	inhibition (Cannabinoid receptor 1 [9])
> 10 µM	66.7%	132%	6.97 µM	CCc1c(C(=O)NCCc2ccc(N3CCN(C)CC3)cc2)[nH]c2ccc(Cl)cc12	–	–	–	–	–
1.53 µM	42.1%	171%	> 10 µM	CN(C)c1ccc(CCNC(=O)c2cc3cc(Cl)ccc3[nH]2)cc1	–	–	–	–	–
0.96 µM	55.7%	183%	9.13 µM	CCc1c(C(=O)NCCc2ccc(NC)cc2)[nH]c2ccc(Cl)cc12	–	–	–	–	–
0.05 µM	22.8%	227%	> 10 µM	CCc1c(C(=O)NCCc2ccc(N(C)C)cc2)[nH]c2ccc(Cl)cc12	–	–	–	–	–
0.55 µM	29%	189%	> 10 µM	CCc1c(C(=O)NCCc2ccc(C)cc2)[nH]c2ccc(Cl)cc12	–	–	–	–	–
> 10 µM	37.7%	112%	> 10 µM	CCc1c(C(=O)NCCc2ccc(F)cc2)[nH]c2ccc(Cl)cc12	–	–	–	–	–
–	52.7%	–	8.26 µM	CCc1c(C(=O)OCCc2ccc(N3CCCCC3)cc2)[nH]c2ccc(Cl)cc12	–	–	> 10 µM	18%	–
–	65.7%	–	5.57 µM	CCc1c(C(=O)OCCc2ccc(N(C)C)cc2)[nH]c2ccc(Cl)cc12	–	–	> 10 µM	19.6%	–
0.81 µM	55.2%	244%	8.97 µM	CCc1c(C(=O)NCCc2ccc(N3CCCCC3)cc2)[nH]c2ccccc12	–	–	–	–	–
0.14 µM	20.6%	244%	> 10 µM	CCc1c(C(=O)NCCc2ccc(N3CCCCC3)cc2)[nH]c2ccc(Cl)cc12	–	–	–	–	–
0.76 µM	48.9%	179%	> 10 µM	CCc1c(C(=O)NCCc2ccc(Cl)cc2)[nH]c2ccc(Cl)cc12	–	–	–	–	–
8.45 µM	33.1%	180%	> 10 µM	CC(O)c1c(C(=O)NCCc2ccc(N3CCCCC3)cc2)[nH]c2ccc(Cl)cc12 (racemic)	–	–	–	–	–

SMILES	EC50 (Cannabinoid receptor 1 [1])	inhibition (Cannabinoid receptor 2 [2])	Activity (Cannabinoid receptor 1 [3])	IC50 (Cannabinoid receptor 2 [4])	EC50 (Cannabinoid receptor 2 [5])	Activity (Cannabinoid receptor 2 [6])	IC50 (Cannabinoid receptor 1 [7])	inhibition (Cannabinoid receptor 1 [8])	inhibition (Cannabinoid receptor 1 [9])
CCc1c(C(=O)NCCc2ccc([N+](=O)[O-])cc2)[nH]c2ccc(Cl)cc12	0.36 µM	0%	242%	> 10 µM	–	–	–	–	–
O=C(NCCc1ccc(N2CCCCC2)cc1)c1cc2cc(Cl)ccc2[nH]1	0.09 µM	37.9%	207%	> 10 µM	–	–	–	–	–
O=C(NCCc1ccc([N+](=O)[O-])cc1)c1cc2cc(Cl)ccc2[nH]1	> 10 µM	32.7%	141%	> 10 µM	–	–	–	–	–
CCc1c(C(=O)NCCc2ccc(N)cc2)[nH]c2ccc(Cl)cc12	> 10 µM	31.1%	145%	> 10 µM	–	–	–	–	–
Cc1c(C(=O)NCCc2ccc(N3CCCCC3)cc2)[nH]c2ccc(Cl)cc12	0.23 µM	–	243%	–	> 10 µM	111%	–	–	–
CCc1c(C(=O)OCCc2ccc([N+](=O)[O-])cc2)[nH]c2ccc(Cl)cc12	–	16.8%	–	> 10 µM	–	–	> 10 µM	24.7%	–
CNc1ccc(CCNC(=O)c2cc3cc(Cl)ccc3[nH]2)cc1	–	43.7%	–	> 10 µM	–	–	> 10 µM	3.8%	–
CCc1c(C(=O)NCCc2ccc(N3CCCC3)cc2)[nH]c2ccc(Cl)cc12	> 10 µM	–	134%	–	> 10 µM	135%	–	–	–
O=C(NCCc1ccc(Cl)cc1)c1cc2cc(Cl)ccc2[nH]1	> 10 µM	11.1%	115%	> 10 µM	–	–	–	–	–
CC(=O)c1c(C(=O)NCCc2ccc(N3CCCCC3)cc2)[nH]c2ccc(Cl)cc12	–	7.9%	–	> 10 µM	–	–	> 10 µM	–	19.9%
Nc1ccc(CCNC(=O)c2cc3cc(Cl)ccc3[nH]2)cc1	–	37.7%	–	> 10 µM	–	–	> 10 µM	3.6%	–
